Tested on: NOMO1
Assay: cell viability relative to DMSO control; higher = less cytotoxic
Conditions: 48 h
Outline: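 Cells were incubated for 48 h at 37°C before CellTiter-Glo One luminescence was read. The cells were NOMO1 or SEM (500 cells/well) or P12-Ichikawa (1000 cells/well) leukemia cells, adapted for at least four passages in each medium and seeded in 1536-well plates (5 μl). Dosing used library compounds in DMSO applied by pin over 11 threefold points, 47 μM to 0.79 nM. Viability is the per-plate percentage of DMSO wells, with cell-free wells as background.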

[1] = HPLM + 10% dialyzed FBS, 0.000781 µM
[2] = HPLM + 10% dialyzed FBS, 0.00234 µM
[3] = HPLM + 10% dialyzed FBS, 0.00702 µM
[4] = HPLM + 10% dialyzed FBS, 0.0211 µM
[5] = HPLM + 10% dialyzed FBS, 0.0632 µM
[6] = HPLM + 10% dialyzed FBS, 0.19 µM
[7] = HPLM + 10% dialyzed FBS, 0.569 µM
[8] = HPLM + 10% dialyzed FBS, 1.71 µM
[9] = HPLM + 10% dialyzed FBS, 5.12 µM
[10] = HPLM + 10% dialyzed FBS, 15.4 µM
[11] = HPLM + 10% dialyzed FBS, 46.1 µM
[12] = RPMI 5 mM glucose + 10% FBS, 0.000781 µM
[13] = RPMI 5 mM glucose + 10% FBS, 0.00234 µM
[14] = RPMI 5 mM glucose + 10% FBS, 0.00702 µM
[15] = RPMI 5 mM glucose + 10% FBS, 0.0211 µM
[16] = RPMI 5 mM glucose + 10% FBS, 0.0632 µM
[17] = RPMI 5 mM glucose + 10% FBS, 0.19 µM
[18] = RPMI 5 mM glucose + 10% FBS, 0.569 µM
[19] = RPMI 5 mM glucose + 10% FBS, 1.71 µM
[20] = RPMI 5 mM glucose + 10% FBS, 5.12 µM
[21] = RPMI 5 mM glucose + 10% FBS, 15.4 µM
[22] = RPMI 5 mM glucose + 10% FBS, 46.1 µM
[23] = RPMI 5 mM glucose + 10% dialyzed FBS, 0.000781 µM
[24] = RPMI 5 mM glucose + 10% dialyzed FBS, 0.00234 µM
[25] = RPMI 5 mM glucose + 10% dialyzed FBS, 0.00702 µM
[26] = RPMI 5 mM glucose + 10% dialyzed FBS, 0.0211 µM
[27] = RPMI 5 mM glucose + 10% dialyzed FBS, 0.0632 µM
[28] = RPMI 5 mM glucose + 10% dialyzed FBS, 0.19 µM
[29] = RPMI 5 mM glucose + 10% dialyzed FBS, 0.569 µM
[30] = RPMI 5 mM glucose + 10% dialyzed FBS, 1.71 µM
[31] = RPMI 5 mM glucose + 10% dialyzed FBS, 5.12 µM
[32] = RPMI 5 mM glucose + 10% dialyzed FBS, 15.4 µM
[33] = RPMI 5 mM glucose + 10% dialyzed FBS, 46.1 µM

Row | Structure (SMILES) | cell viability [1] [%] | cell viability [2] [%] | cell viability [3] [%] | cell viability [4] [%] | cell viability [5] [%] | cell viability [6] [%] | cell viability [7] [%] | cell viability [8] [%] | cell viability [9] [%] | cell viability [10] [%] | cell viability [11] [%] | cell viability [12] [%] | cell viability [13] [%] | cell viability [14] [%] | cell viability [15] [%] | cell viability [16] [%] | cell viability [17] [%] | cell viability [18] [%] | cell viability [19] [%] | cell viability [20] [%] | cell viability [21] [%] | cell viability [22] [%] | cell viability [23] [%] | cell viability [24] [%] | cell viability [25] [%] | cell viability [26] [%] | cell viability [27] [%] | cell viability [28] [%] | cell viability [29] [%] | cell viability [30] [%] | cell viability [31] [%] | cell viability [32] [%] | cell viability [33] [%]
1 | CCCCCCCCc1ccc(CCC(N)(CO)CO)cc1 | 124 | 124 | 123 | 122 | 112 | 102 | 79.1 | 91 | 60.6 | 48.9 | 2.93 | 99.2 | 104 | 102 | 100 | 105 | 102 | 104 | 93.4 | 90.3 | 64.2 | 2.61 | 113 | 105 | 103 | 113 | 105 | 95.6 | 98.2 | 81 | 70.5 | 65.2 | 2.38
2 | CO[C@H]1C[C@@H]2CC[C@@H](C)[C@@](O)(O2)C(=O)C(=O)N2CCCC[C@H]2C(=O)O[C@H]([C@H](C)C[C@@H]2CC[C@@H](OCCO)[C@H](OC)C2)CC(=O)[C@H](C)/C=C(/C)[C@@H](O)[C@@H](OC)C(=O)[C@H](C)C[C@H](C)\C=C/C=C\C=C/1C | 91.8 | 97.5 | 95.7 | 92.9 | 81.7 | 95.4 | 80.7 | 68.8 | 73.8 | 64.1 | 57.4 | 86.5 | 94.6 | 97.8 | 99.4 | 98.4 | 94.2 | 85.4 | 88 | 84.8 | 61.3 | 70.8 | 85 | 91.2 | 84.5 | 76.7 | 85 | 78.1 | 78.7 | 73.1 | 76.3 | 58.9 | 61.5
3 | Nc1nc(OCc2ccccc2)c2nc[nH]c2n1 | – | – | – | – | – | – | – | – | – | – | – | 95.7 | 117 | 103 | 109 | 113 | 101 | 133 | 107 | 108 | 108 | 115 | 110 | 119 | 123 | 118 | 128 | 125 | 122 | 110 | 116 | 129 | 123
4 | CC(=O)O[C@@]12CO[C@@H]1C[C@H](O)[C@]3(C)[C@@H]2[C@H](OC(=O)C4=CC=CC=C4)[C@]5(O)C[C@H](OC(=O)C(O)[C@@H](NC(=O)OC(C)(C)C)C6=CC=CC=C6)C(=C(/[C@@H](O)C3=O)C5(C)C)/C (stereo partly drawn) | 32.4 | 37.3 | 34.7 | 39.4 | 42 | 43 | 31.7 | 27.4 | 27.7 | 7.8 | 5.55 | 23.9 | 27 | 25.5 | 28.9 | 28.2 | 27.1 | 24.7 | 24.8 | 20 | 12.6 | 8.59 | 25.2 | 30.6 | 27.8 | 31.5 | 28.9 | 29.7 | 27.3 | 26.2 | 18.8 | 11 | 9.95
5 | Cc1ccc(C(=O)c2cc(O)c(O)c([N+](=O)[O-])c2)cc1 | 91.5 | 104 | 98.2 | 100 | 116 | 101 | 115 | 89.5 | 80.7 | 83.2 | 86.4 | 90.3 | 86.4 | 83.6 | 90.6 | 96 | 83.7 | 90.9 | 81.7 | 94.6 | 87.3 | 92.2 | 100 | 98 | 79.4 | 92.1 | 99.6 | 105 | 108 | 94.3 | 81.8 | 88.4 | 103
6 | COC1=CC2=C(C=C1OC)[C@H]3[C@@H](CO2)OC4=C(C=CC5=C4\C=C/C(C)(C)O5)C3=O | 82.8 | 89.3 | 106 | 96.8 | 95 | 98.5 | 94 | 82.8 | 70.4 | 69.3 | 10.3 | 88.8 | 95.3 | 93.3 | 99.2 | 89 | 93.6 | 90.8 | 82.8 | 78.7 | 76.5 | 9.87 | 86.3 | 88.1 | 91 | 95.2 | 79.9 | 98.1 | 94.3 | 88.5 | 81.9 | 81.4 | 21.4
7 | CO[C@@H]1C(N(C)C(=O)c2ccccc2)C[C@H]2O[C@]1(C)n1c3ccccc3c3c4c(c5c6ccccc6n2c5c31)C(=O)NC4=O (stereo partly drawn) | 82.2 | 105 | 90.2 | 106 | 98.1 | 104 | 98.3 | 101 | 58.4 | 40.4 | 10.2 | 76.8 | 90.2 | 83.1 | 91 | 88.4 | 104 | 87 | 89.3 | 53.5 | 47.7 | 8.01 | 71.5 | 78.8 | 78 | 91.7 | 85.1 | 85.4 | 75.3 | 90.6 | 42.7 | 49.1 | 8.58
8 | COC[C@H]1OC(=O)C2=COC3=C2[C@@]1(C)\C4=C(\[C@@H]5CC[C@H](O)[C@@]5(C)C[C@H]4OC(C)=O)C3=O | 106 | 112 | 117 | 111 | 132 | 134 | 118 | 113 | 88.6 | 93.1 | 70.6 | 98.9 | 111 | 117 | 107 | 123 | 114 | 117 | 109 | 110 | 102 | 87.6 | 88.2 | 103 | 110 | 106 | 118 | 126 | 115 | 119 | 97.9 | 94 | 83.5
9 | CN(C)CCN(Cc1ccc(Cl)cc1)c1ccccn1.Cl | 84.4 | 90.2 | 89.4 | 95.3 | 91 | 78.5 | 98.2 | 63.8 | 93.9 | 91.1 | 90.3 | 85.2 | 90 | 92.7 | 92.6 | 84.1 | 96.8 | 99.2 | 85.9 | 92 | 80 | 90.5 | 83.5 | 95.1 | 91.7 | 96.1 | 94.1 | 89.3 | 103 | 50.5 | 87.3 | 89.8 | 79.6
10 | C[C@@H]1C[C@H]2[C@@H]3CC\C4=C\C(=O)\C=C/[C@]4(C)[C@@]3(Cl)[C@@H](O)C[C@]2(C)[C@@]1(OC(=O)C5=CC=CO5)C(=O)CCl | 118 | 109 | 113 | 115 | 118 | 99.2 | 103 | 107 | 81.9 | 71.6 | 84.2 | 112 | 111 | 101 | 102 | 104 | 103 | 108 | 101 | 97.1 | 70.5 | 84.2 | 95.1 | 112 | 106 | 113 | 105 | 110 | 98 | 109 | 97.9 | 65.4 | 79.7
11 | Cc1ncc([N+](=O)[O-])n1CCO | 112 | 122 | 126 | 145 | 130 | 122 | 120 | 137 | 116 | 142 | 120 | – | – | – | – | – | – | – | – | – | – | – | 113 | 113 | 125 | 131 | 137 | 140 | 132 | 142 | 129 | 136 | 130
12 | OC1=CC=C(C=C1)\C2=C\C(=O)C3=C(O2)C=C(O)C=C3O | 102 | 111 | 104 | 107 | 103 | 126 | 89.2 | 107 | 98.1 | 84.1 | 57.2 | 108 | 112 | 108 | 108 | 105 | 105 | 97.9 | 96 | 107 | 88.9 | 53.6 | 108 | 101 | 114 | 104 | 104 | 102 | 116 | 99.3 | 97.8 | 80 | 54.6
13 | O=[N+]([O-])c1cnc(Sc2nnc(O)n2-c2ccc3c(c2)OCCO3)s1 | 84.4 | 73.6 | 101 | 102 | 96.4 | 92.3 | 86.3 | 96.1 | 93.6 | 6.33 | 2.43 | 81.7 | 78.2 | 95.3 | 92 | 85.2 | 86.2 | 82.8 | 92.2 | 84.7 | 2.77 | 2.27 | 78.9 | 96.3 | 92 | 97.1 | 92.2 | 98.9 | 95.3 | 89.9 | 83.5 | 6.45 | 1.89
14 | Cc1[nH]c(/C=C2\C(=O)Nc3ccc([S+](=O)([O-])Cc4c(Cl)cccc4Cl)cc32)c(C)c1C(=O)N1CCC[C@@H]1CN1CCCC1 | 100 | 112 | 97.5 | 83 | 92.8 | 96.4 | 98.2 | 84.3 | 81.2 | 87.7 | 59.9 | 108 | 101 | 89.1 | 93.2 | 88 | 99.9 | 99.3 | 100 | 90.5 | 83.4 | 79.6 | 98.2 | 89.8 | 90.2 | 94.4 | 92.7 | 102 | 85.9 | 91.2 | 86.4 | 84.8 | 72.6
15 | COc1cccc2c1C(=O)c1c(O)c3c(c(O)c1C2=O)C[C@@](O)(C(C)=O)C[C@@H]3O[C@H]1C[C@H](N)[C@H](O)[C@H](C)O1 | 98.6 | 107 | 108 | 114 | 111 | 81.5 | 12.4 | 7.35 | 5.97 | 5.19 | 4.98 | 99 | 104 | 106 | 99.2 | 108 | 78.6 | 9.07 | 4.79 | 4.48 | 5.23 | 3.6 | 91.6 | 113 | 107 | 115 | 108 | 73.4 | 9.73 | 6.25 | 4.58 | 4.86 | 4.92
